In experiment [1] the test system is K562. Briefly: Cytotoxicity against Homo sapiens (human) K562 cells after 48 hr by MTT assay. The experiment is classed as functional, cell-based. The following applies: K562, 48 h.
Experiment [2] can be described thus: Cytotoxicity against Homo sapiens (human) A375-S2 cells after 48 hr by MTT assay. The following applies: A375-S2, 48 h. The experiment is classed as functional, cell-based.
Experiment [3] concerns HL-60. Briefly: Cytotoxicity against Homo sapiens (human) HL60 cells after 48 hr by MTT assay. Type of experiment: functional, cell-based. Particulars: HL-60, 48 h. In general terms: Tetrazolium dyes change colour on reduction, which living cells bring about.
The test system of experiment [4] is MCF7. Briefly: Cytotoxicity against Homo sapiens (human) MCF7 cells after 48 hr by MTT assay. Type of experiment: functional, cell-based. Particulars: MCF7, 48 h.
Experiment [5] has as its system A549. Briefly: Cytotoxicity against Homo sapiens (human) A549 cells after 48 hr by MTT assay. The experiment is classed as functional, cell-based. Particulars: A549, 48 h.
The test system of experiment [6] is HepG2. Briefly: Cytotoxicity against Homo sapiens (human) HepG2 cells after 48 hr by MTT assay. Type of experiment: functional, cell-based. The following applies: HepG2, 48 h.
Experiment [7] has as its system A549. Briefly: Ratio of dihydroartemisinin IC50 to compound IC50 for Homo sapiens (human) A549 cells. Type of experiment: functional.
Experiment [8] concerns HCT-116. Briefly: Ratio of dihydroartemisinin IC50 to compound IC50 for Homo sapiens (human) HCT116 cells. The experiment is classed as functional.
For experiment [9], the system named is HT-1080. Briefly: Cytotoxicity against Homo sapiens (human) HT1080 cells after 48 hr by MTT assay. Type of experiment: functional, cell-based. The following applies: HT-1080, 48 h.
Experiment [10] has as its system HeLa. Briefly: Cytotoxicity against Homo sapiens (human) HeLa cells after 48 hr by MTT assay. Type of experiment: functional, cell-based.
In experiment [11] the test system is HCT-116. Briefly: Cytotoxicity against Homo sapiens (human) HCT116 cells after 48 hr by MTT assay. The experiment is classed as functional, cell-based. Particulars: HCT-116, 48 h.
In experiment [12] the test system is U-937. Briefly: Cytotoxicity against Homo sapiens (human) U937 cells after 48 hr by MTT assay. The experiment is classed as functional, cell-based. Particulars: U-937, 48 h.
Experiment [13] relates to MCF7. Briefly: Ratio of dihydroartemisinin IC50 to compound IC50 for Homo sapiens (human) MCF7 cells. The experiment is classed as functional.

With `COc1ccc(NC(=O)NCCO[C@H]2O[C@@H]3O[C@@]4(C)CC[C@H]5[C@H](C)CC[C@@H]([C@H]2C)[C@@]35OO4)cc1`, the IC50 (in general, the concentration that gives 50% inhibition) is 55.8 µM in experiment [1]; more than 100 µM in experiment [2]; 2.53 µM in experiment [3]; more than 100 µM in experiment [4]; 63.2 µM in experiment [5]; 46.2 µM in experiment [6]. Further, the IC50 in experiment [9] is more than 100 µM; in experiment [10] it was 61.5 µM; in [11], 50.7 µM; in [12], 23.7 µM. For the same compound, the figures for the “Ratio IC50” value in [7] and in [8] were 1.2 and 1.7, respectively.

Turning to `Cc1ccc(C)c(NC(=O)NCCO[C@H]2O[C@@H]3O[C@@]4(C)CC[C@H]5[C@H](C)CC[C@@H]([C@H]2C)[C@@]35OO4)c1`, the 50% inhibitory concentration (IC50) in experiment [1] was 23 µM; in [2], more than 100 µM; in [3] it was less than 1 µM; in experiment [4], 42.2 µM; in experiment [5], 33.7 µM; in experiment [6], 23.2 µM. Further, the IC50 in experiment [9] was more than 100 µM; in [10], 31 µM; in experiment [11], 47.5 µM; in experiment [12] it was 2.51 µM. Also, the “Ratio IC50” value in experiment [7] is on record as 1.2; in experiment [8] it was 1.7.

`C[C@H]1[C@@H](OCCNC(=O)Nc2ccc(Cl)cc2)O[C@@H]2O[C@@]3(C)CC[C@H]4[C@H](C)CC[C@@H]1[C@@]24OO3`: the half-maximal inhibitory concentration (IC50) in experiment [1] is 32.5 µM; in experiment [2], 41 µM; in experiment [3], less than 1 µM; in experiment [4], 32.8 µM; in experiment [5], 42 µM; in experiment [6], 36.3 µM. The IC50 came to 43.9 µM in experiment [9], 20.6 µM in experiment [10], 39.5 µM in [11] and 9.99 µM in experiment [12]. In addition, the “Ratio IC50” value came to 1.2 in experiment [7] and 1.7 in experiment [8].

For the compound `C[C@H]1[C@@H](OCCNC(=O)Nc2ccc(C(F)(F)F)cc2)O[C@@H]2O[C@@]3(C)CC[C@H]4[C@H](C)CC[C@@H]1[C@@]24OO3`, the IC50 in [1] is 6.97 µM; in experiment [2], more than 100 µM; in experiment [3], less than 1 µM; in experiment [4], 11.6 µM; in experiment [5], 29.5 µM; in [6] it was 11.2 µM. In addition, the IC50 in experiment [9] is more than 100 µM; in experiment [10], 16.6 µM; in experiment [11], 31.3 µM; in experiment [12], 1.1 µM. Moreover, the “Ratio IC50” value in [13] is on record as 4; in experiment [7] it was 1.2; in [8], 1.7.

Take `C[C@H]1[C@@H](OCCNC(=O)Nc2ccc([N+](=O)[O-])cc2)O[C@@H]2O[C@@]3(C)CC[C@H]4[C@H](C)CC[C@@H]1[C@@]24OO3`: the IC50 worked out at 32.1 µM in [1]; 35.9 µM in experiment [2]; 1.2 µM in experiment [3]; 42.2 µM in experiment [4]; 53 µM in [5]; 39.6 µM in experiment [6]. Further, the half-maximal inhibitory concentration (IC50) in [9] came to 29.8 µM; in experiment [10], 23 µM; in experiment [11] it was 44.4 µM; in experiment [12] it was 7.75 µM. The “Ratio IC50” value in experiment [7] is recorded as 1.2; in experiment [8] it was 1.7.

`C[C@H]1[C@@H](OCCNC(=O)Nc2ccc(F)cc2)O[C@@H]2O[C@@]3(C)CC[C@H]4[C@H](C)CC[C@@H]1[C@@]24OO3`: the concentration for half-maximal inhibition (IC50) in [1] is 38.4 µM; in experiment [2], 33.7 µM; in experiment [3], 3.64 µM; in experiment [4] it was 46.8 µM; in experiment [5], 43.7 µM; in experiment [6], 26.2 µM. The IC50 in experiment [9] was determined as 26.8 µM; in experiment [10], 35.2 µM; in [11] it was 43.7 µM; in [12], 25.2 µM. The “Ratio IC50” value in experiment [7] came to 1.2; in experiment [8], 1.7.

Consider `Cc1ccccc1NC(=O)NCCO[C@H]1O[C@@H]2O[C@@]3(C)CC[C@H]4[C@H](C)CC[C@@H]([C@H]1C)[C@@]24OO3`, for which the half-inhibitory concentration (IC50) in experiment [1] was 29.4 µM; in experiment [2], more than 100 µM; in experiment [3] it was 2.11 µM; in [4], 88.9 µM; in [5] it was 41.7 µM; in [6], 53.2 µM. In addition, the IC50 in experiment [9] is more than 100 µM; in experiment [10] it was 64.7 µM; in experiment [11] it was 53.8 µM; in [12], 16.2 µM. For the same compound, the “Ratio IC50” value in experiment [7] was found to be 1.2; in [8], 1.7.

As to `C[C@H]1[C@H](OCCNC(=O)Nc2ccc(C(F)(F)F)cc2)O[C@@H]2O[C@@]3(C)CC[C@H]4[C@H](C)CC[C@@H]1[C@@]24OO3`, the 50% inhibitory concentration (IC50) was 26.1 µM in experiment [1]; more than 100 µM in [2]; less than 1 µM in experiment [3]; more than 100 µM in experiment [4]; 37.1 µM in [5]; 11.7 µM in experiment [6]. Further, the concentration for half-maximal inhibition (IC50) in [9] is more than 100 µM; in experiment [10], 31.7 µM; in experiment [11] it was 46.4 µM; in experiment [12], less than 1 µM. Also, the “Ratio IC50” value is 1.2 in [7] and 1.7 in [8].

Consider `Cc1c(Cl)cccc1NC(=O)NCCO[C@H]1O[C@@H]2O[C@@]3(C)CC[C@H]4[C@H](C)CC[C@@H]([C@H]1C)[C@@]24OO3`, for which the IC50 is 9.45 µM in [1]; more than 100 µM in [2]; less than 1 µM in experiment [3]; 36.8 µM in [4]; 26.2 µM in experiment [5]; 40.6 µM in experiment [6]. Further, the 50% inhibitory concentration (IC50) in experiment [9] was more than 100 µM; in [10], 25.7 µM; in [11], 22.7 µM; in experiment [12], 2.59 µM. Moreover, the “Ratio IC50” value was 1.2 in [7] and 1.7 in [8].

In the case of `C[C@H]1[C@@H](OCCNC(=O)Nc2ccccc2)O[C@@H]2O[C@@]3(C)CC[C@H]4[C@H](C)CC[C@@H]1[C@@]24OO3`, the IC50 in experiment [1] is 25 µM; in [2] it was more than 100 µM; in experiment [3] it was 3 µM; in [4], 43.7 µM; in experiment [5], 63.3 µM; in experiment [6], 34 µM. The half-maximal inhibitory concentration (IC50) in experiment [9] is more than 100 µM; in experiment [10], 25.1 µM; in [11] it was 53.8 µM; in [12], 6.06 µM. For the same compound, the entries for the “Ratio IC50” value in experiment [7] and in experiment [8] were 1.2 and 1.7, respectively.

As to `C[C@H]1[C@@H](OCCNC(=O)Nc2ccc(Br)cc2)O[C@@H]2O[C@@]3(C)CC[C@H]4[C@H](C)CC[C@@H]1[C@@]24OO3`, the half-inhibitory concentration (IC50) in experiment [1] was 27.6 µM; in [2], more than 100 µM; in experiment [3] it was less than 1 µM; in [4], 25.6 µM; in [5] it was 34.2 µM; in experiment [6], 23.2 µM. The IC50 is more than 100 µM in [9], 18.2 µM in [10], 26.7 µM in experiment [11] and 5.2 µM in experiment [12]. In addition, the entries for the “Ratio IC50” value in experiment [7] and in [8] were 1.2 and 1.7, respectively.

On to `C[C@H]1[C@H](OCCNC(=O)Nc2ccc(Cl)cc2)O[C@@H]2O[C@@]3(C)CC[C@H]4[C@H](C)CC[C@@H]1[C@@]24OO3`, for which the IC50 in experiment [1] was 37.9 µM; in experiment [2] it was 9.25 µM; in experiment [3], less than 1 µM; in experiment [4], 25.9 µM; in experiment [5], 35.5 µM; in experiment [6], 16.6 µM. Besides, the IC50 came out at 40.3 µM in [9], 19.7 µM in experiment [10], 37.8 µM in experiment [11] and 2.6 µM in [12]. For the same compound, the results for the “Ratio IC50” value in experiment [7] and in experiment [8] were 1.2 and 1.7, respectively.

Turning to `C[C@H]1[C@H](OCCNC(=O)Nc2ccc([N+](=O)[O-])cc2)O[C@@H]2O[C@@]3(C)CC[C@H]4[C@H](C)CC[C@@H]1[C@@]24OO3`, the IC50 in [1] is more than 100 µM; in experiment [2], more than 100 µM; in experiment [3] it was less than 1 µM; in experiment [4] it was 94.7 µM; in experiment [5], 49.6 µM; in experiment [6], 34.3 µM. Further, the IC50 is more than 100 µM in [9], 64.2 µM in experiment [10], 41 µM in experiment [11] and 9.26 µM in experiment [12]. For the same compound, the “Ratio IC50” value in [7] amounted to 1.2; in experiment [8] it was 1.7.

Turning to `C[C@H]1[C@H](OCCNC(=O)Nc2ccc(Br)cc2)O[C@@H]2O[C@@]3(C)CC[C@H]4[C@H](C)CC[C@@H]1[C@@]24OO3`, the IC50 is 34.6 µM in experiment [1]; 23.9 µM in experiment [2]; less than 1 µM in [3]; 25.9 µM in experiment [4]; 39.4 µM in [5]; 24.3 µM in experiment [6]. In addition, the IC50 was 35.2 µM in experiment [9], 23.9 µM in [10], 35 µM in experiment [11] and less than 1 µM in [12]. The “Ratio IC50” value in experiment [7] was 1.2; in [8] it was 1.7.

As for `C[C@H]1[C@@H](O)O[C@@H]2O[C@@]3(C)CC[C@H]4[C@H](C)CC[C@@H]1[C@@]24OO3` [ARTENIMOL], the 50% inhibitory concentration (IC50) was 9.81 µM in [1]; 5.48 µM in experiment [2]; less than 1 µM in [3]; 50.2 µM in [4]; 76.2 µM in [5]; 30.1 µM in experiment [6]. In addition, the IC50 in [9] is 49.1 µM; in [10], 8.85 µM; in experiment [11] it was 95.4 µM; in experiment [12], less than 1 µM.

Source of the values: ChEMBL document CHEMBL3046227, “Synthesis and evaluation in vitro of 1-[2-(10-dihydroartemisininoxy) ethyl]-3-phenylurea derivatives as potential agents against cancer” (Med Chem Res, 2013).
